Patent US20240116985A1, “STAPLED PEPTIDES AND METHODS THEREOF” (priority 2020, published 2024)
In brackets after ≈: the same amount, converted by molar mass. Read-outs that look alike come from different tables or passages of the source.

Tests used:
Solubility in PBS = type: physicochemical
Method in brief: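 Steps: ultracentrifuge the peptide PBS solution, inject the supernatant on HPLC, inject a 50 μM peptide DMSO solution as reference, then calculate solubility as area ratio (PBS/DMSO) × 50 uM.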

[1] = target: T1, full-length beta-Catenin (Uniprot ID P35222) (Homo sapiens, UniProt P35222); assay: Fluorescence polarization IC50 (beta-catenin / 5FAM-TCF4 10-53 competition); type: binding
T1 construct: 10 nM full-length beta-Catenin (Uniprot ID P35222)
T1 sequence (P35222 1-781): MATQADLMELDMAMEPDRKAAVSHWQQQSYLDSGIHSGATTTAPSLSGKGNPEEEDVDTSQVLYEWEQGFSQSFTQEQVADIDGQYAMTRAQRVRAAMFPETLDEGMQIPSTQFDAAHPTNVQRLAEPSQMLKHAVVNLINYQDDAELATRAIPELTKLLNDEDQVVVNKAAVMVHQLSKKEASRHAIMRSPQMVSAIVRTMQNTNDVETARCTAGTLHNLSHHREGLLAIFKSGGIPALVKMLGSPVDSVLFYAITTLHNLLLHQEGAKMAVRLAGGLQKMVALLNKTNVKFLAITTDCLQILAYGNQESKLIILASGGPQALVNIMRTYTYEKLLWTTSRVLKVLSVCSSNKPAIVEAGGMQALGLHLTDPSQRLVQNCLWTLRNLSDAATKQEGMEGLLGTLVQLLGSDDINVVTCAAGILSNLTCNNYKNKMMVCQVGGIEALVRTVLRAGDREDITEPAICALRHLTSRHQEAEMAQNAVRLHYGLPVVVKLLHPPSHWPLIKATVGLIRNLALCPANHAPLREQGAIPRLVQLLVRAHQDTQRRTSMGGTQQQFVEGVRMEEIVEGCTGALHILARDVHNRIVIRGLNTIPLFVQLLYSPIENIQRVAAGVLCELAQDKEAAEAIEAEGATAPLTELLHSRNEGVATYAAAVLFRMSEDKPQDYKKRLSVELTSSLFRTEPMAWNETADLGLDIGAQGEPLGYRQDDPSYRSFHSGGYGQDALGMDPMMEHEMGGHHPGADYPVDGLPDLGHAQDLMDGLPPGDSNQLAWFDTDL

CHI Log D procedure = type: physicochemical; conditions: for chromatographic logD: pH 7.4, CHI Log D; for CHI Log D: pH 7.4
[2] = fluorescence polarization, read-out: beta-Catenin FP IC50

Row | Solubility (Solubility in PBS) [µM] | IC50 [1, 2] [µM] | chromatographic logD (CHI Log D procedure) | Solubility (Solubility in PBS; Solubility (uM)) [µM] | IC50 ([1]; read-out: FP EC50) [µM] | CHI Log D (CHI Log D procedure) | Compound
1 | 10 (≈ 19.1 µg/mL) | 0.088 | 2.62 | – | – | – | CC[C@H](C)[C@@H]1NC(=O)[C@H](CC(=O)O)NC(=O)[C@]2(CC=CCCCC3(CCCC=CCCCCCC[C@@](C)(C(=O)N[C@@H](Cc4ccccc4)C(=O)N[C@@H](Cc4csc5ccccc45)C(=O)N[C@@H](CCCNC(=N)N)C(N)=O)NC(=O)[C@H](CCC(N)=O)NC(=O)[C@H](Cc4ccccc4)NC(=O)[C@H](C)NC(=O)[C@H](C)NC(=O)[C@H](CCC(=O)O)NC(=O)[C@H](CC(=O)O)NC3=O)NC1=O)CCCN2C(C)=O (stereo partly drawn) [I-633, Ac-PL3-Asp-Ile-B5-Asp-Glu-Ala-Ala-Phe-Gln-S8-Phe-BztA-Arg-NH2]
2 | – | 0.425 | 2.76 | 49 (≈ 91.5 µg/mL) | – | – | CC[C@H](C)[C@@H]1NC(=O)[C@H](CC(=O)O)NC(=O)[C@]2(CC=CCCCC3(CCCC=CCCCCCC[C@@](C)(C(=O)N[C@@H](Cc4ccccc4)C(=O)N[C@@H](Cc4csc5ccccc45)C(=O)N[C@@H](CC(C)C)C(N)=O)NC(=O)[C@H](CCC(N)=O)NC(=O)[C@H](Cc4ccccc4)NC(=O)[C@H](C)NC(=O)[C@H](C)NC(=O)[C@H](CCC(=O)O)NC(=O)[C@H](CC(=O)O)NC3=O)NC1=O)CCCN2C(C)=O (stereo partly drawn) [I-634, Ac-PL3-Asp-Ile-B5-Asp-Glu-Ala-Ala-Phe-Gln-S8-Phe-BztA-Leu-NH2]
3 | – | 0.171 | 2.73 | 43 (≈ 81.8 µg/mL) | – | – | CC[C@H](C)[C@@H]1NC(=O)[C@H](CC(=O)O)NC(=O)[C@]2(CC=CCCCC3(CCCC=CCCCCCC[C@@](C)(C(=O)N[C@@H](Cc4ccccc4)C(=O)N[C@@H](Cc4csc5ccccc45)C(=O)N[C@@H](Cc4ccccc4)C(N)=O)NC(=O)[C@H](CCC(N)=O)NC(=O)[C@H](Cc4ccccc4)NC(=O)[C@H](C)NC(=O)[C@H](C)NC(=O)[C@H](CCC(=O)O)NC(=O)[C@H](CC(=O)O)NC3=O)NC1=O)CCCN2C(C)=O (stereo partly drawn) [I-635, Ac-PL3-Asp-Ile-B5-Asp-Glu-Ala-Ala-Phe-Gln-S8-Phe-BztA-Phe-NH2]
4 | 50 (≈ 95.9 µg/mL) | 0.198 | 2.57 | – | – | – | CC[C@H](C)[C@@H]1NC(=O)[C@H](CC(=O)O)NC(=O)[C@]2(CC=CCCCC3(CCCC=CCCCCCC[C@@](C)(C(=O)N[C@@H](Cc4ccccc4)C(=O)N[C@@H](Cc4csc5ccccc45)C(=O)N[C@@H](Cc4ccc(O)cc4)C(N)=O)NC(=O)[C@H](CCC(N)=O)NC(=O)[C@H](Cc4ccccc4)NC(=O)[C@H](C)NC(=O)[C@H](C)NC(=O)[C@H](CCC(=O)O)NC(=O)[C@H](CC(=O)O)NC3=O)NC1=O)CCCN2C(C)=O (stereo partly drawn) [I-636, Ac-PL3-Asp-Ile-B5-Asp-Glu-Ala-Ala-Phe-Gln-S8-Phe-BztA-Tyr-NH2]
5 | 48 (≈ 88.9 µg/mL) | 3.88 | – | – | 3.88 | 2.622 | CC[C@H](C)[C@@H]1NC(=O)[C@H](CC(=O)O)NC(=O)[C@]2(CC=CCCCC3(CCCC=CCCCCCC[C@@](C)(C(=O)N[C@@H](Cc4ccccc4)C(=O)N[C@@H](Cc4csc5ccccc45)C(=O)N4CCC[C@H]4C(N)=O)NC(=O)[C@H](CCC(N)=O)NC(=O)[C@H](Cc4ccccc4)NC(=O)[C@H](C)NC(=O)[C@H](C)NC(=O)[C@H](CCC(=O)O)NC(=O)[C@H](CC(=O)O)NC3=O)NC1=O)CCCN2C(C)=O (stereo partly drawn) [I-638, Ac-PL3-Asp-Ile-B5-Asp-Glu-Ala-Ala-Phe-Gln-S8-Phe-BztA-Pro-NH2]
6 | 44 (≈ 81.1 µg/mL) | 0.109 | – | – | 0.109 | 2.49 | CC[C@H](C)[C@@H]1NC(=O)[C@H](CC(=O)O)NC(=O)[C@]2(CC=CCCCC3(CCCC=CCCCCCC[C@@](C)(C(=O)N[C@@H](Cc4ccccc4)C(=O)N[C@@H](Cc4csc5ccccc45)C(=O)N[C@@H](CO)C(N)=O)NC(=O)[C@H](CCC(N)=O)NC(=O)[C@H](Cc4ccccc4)NC(=O)[C@H](C)NC(=O)[C@H](C)NC(=O)[C@H](CCC(=O)O)NC(=O)[C@H](CC(=O)O)NC3=O)NC1=O)CCCN2C(C)=O (stereo partly drawn) [I-639, Ac-PL3-Asp-Ile-B5-Asp-Glu-Ala-Ala-Phe-Gln-S8-Phe-BztA-Ser-NH2]
